Patent US9808448B2, “Pharmaceutical compounds and use of same in cancer and tauopathies” (THE REGENTS OF THE UNIVERSITY OF MICHIGAN, priority 2013, dated 2017)
Entries after “also recorded” stand apart in the source; their conditions may differ.

Assays:
[1] = biological target: T1, human Hsc70 (HSPA8) (Homo sapiens, UniProt P11142); assay: ELISA competitive binding assay (biotinylated MKT-077 displacement); conditions: competitive ELISA, biotin labeled MKT-077 1 μM
T1 construct: made in house
Experimental: Binding of MKT-077 analogs to immobilized Hsp70 was evaluated using a competitive ELISA. In this established assay, a biotinylated version of MKT-077 is bound to immobilized human Hsc70 (HSPA8) and potential competitors are tested for their ability to block the interaction.
A sample of Hsc70 (50 μL; 0.06 mg/mL) was immobilized in clear flat-bottom 96-well plate in MES buffer (50 mM 2-(N-morpholino)ethanesulfonic acid, pH 5.2) at 37° C. overnight. After discarding the excess protein solution, each well was washed three times with 150 μL TBS-T buffer (25 mM Tris, 140 mM NaCl, 2.7 mM KCl, 0.01% Tween-20, pH 7.4). Then, 1 μL of compound (1% DMSO) was diluted into 24 μL of binding buffer (100 mM Tris, 20 mM KCl, 6 mM MgCl2, 0.01% Triton-X100) and incubated at room temperature for 30 min. Biotin labeled MKT-077 (final concentration 1 μM; 25 μL) was subsequently added into each well and the mixture was incubated at room temperature for another 3 hrs. The wells were washed with 150 μL TBS-T buffer three times prior to blocking with 100 μL 3% bovine serum albumin (BSA) in TBS-T buffer for 5 min at room temperature. After the removal of the BSA solution, 50 μL of HRP-streptavidin (Pierce Biotechnology, 1:50000 TBS-T dilution) solution was added and the plates were incubated at room temperature for 1 hr. The HRP-streptavidin solution was removed and wells were washed three times with 150 μL TBS-T. […] substrate (Cell Signaling Technology 100 μL) was added into each well and incubated at room temperature until a visible blue color was shown in wells (about 20 min). 1 M HCl stop solution was then added into each well to yield a yellow solution and the absorbance at 450 nm was recorded on SpectraMax M5 (Molecular Devices).

[2] = system: total and phospho-tau in wild type brain slices; assay: Tau levels in wild type brain slice cultures; type: cell-based, mouse
Experimental: YM-08 activity in a more physiological system was tested. Brain slice cultures from transgenic mice that express mutated tau were treated for 6 hours with YM-08 and the levels of total- and pS396/404 tau measured by Western blots. […] To test whether YM-08 might selectively reduce tau after microtubule disruption, brain slices were cultured from wild type mice and treated them with YM-08 plus the microtubule destabilizer, nocodazole. […] Together, these studies add to growing evidence that Hsp70 selectively identifies tau variants that are not associated with the normal microtubule network, likely minimizing their aggregation and proteotoxicity.

T1 sequence (P11142 whole entry): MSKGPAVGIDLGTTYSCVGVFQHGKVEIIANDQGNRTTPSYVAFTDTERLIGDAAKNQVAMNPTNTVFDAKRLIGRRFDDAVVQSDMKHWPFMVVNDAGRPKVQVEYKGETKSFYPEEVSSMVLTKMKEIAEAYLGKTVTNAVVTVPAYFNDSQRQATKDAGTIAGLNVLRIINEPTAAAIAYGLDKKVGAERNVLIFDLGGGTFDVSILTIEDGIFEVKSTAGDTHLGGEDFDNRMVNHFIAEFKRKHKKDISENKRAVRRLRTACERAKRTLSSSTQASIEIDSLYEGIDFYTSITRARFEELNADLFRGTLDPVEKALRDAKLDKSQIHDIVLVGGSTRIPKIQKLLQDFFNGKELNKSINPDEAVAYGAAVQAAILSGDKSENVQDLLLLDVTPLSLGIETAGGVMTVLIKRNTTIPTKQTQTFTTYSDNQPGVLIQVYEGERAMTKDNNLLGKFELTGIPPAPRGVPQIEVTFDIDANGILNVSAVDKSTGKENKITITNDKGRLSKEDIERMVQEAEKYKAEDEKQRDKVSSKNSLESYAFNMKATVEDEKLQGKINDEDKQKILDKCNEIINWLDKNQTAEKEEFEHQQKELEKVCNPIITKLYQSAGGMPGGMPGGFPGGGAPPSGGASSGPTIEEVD

SMILES: CCn1c(=O)/c(=C2\Sc3ccccc3N2C)s/c1=C\c1ccccn1 [YM-08, (2Z,5E)-3-ethyl-5-(3-methylbenzo[d]thiazol-2(3H)-ylidene)-2-(pyridin-2-ylmethylene)thiazolidin-4-one]
- IC50 [1]: 610 ± 50 nM
- tau levels, YM-08 alone [2]: unchanged; also recorded: did not significantly reduce tau levels
- total and phospho-tau levels, plus nocodazole ([2]; microtubule disruption): decreased levels of both total and phospho-tau
